Measurements from patent US8420636B2, “Pyrrolidinyl-alkyl-amide derivatives, their preparation, and their therapeutic application as CCR3 receptor ligands” (Sanofi, priority 2008, dated 2013).
Like-named read-outs stand apart in the source and are kept apart here.

What was measured:
hCCR3 = target: T1, hCCR3 (Homo sapiens, UniProt P51677); test: Ca2+ mobilization in hCCR3-RBL and hCCR3 K562 cells (test B); format: cell-based
T1 construct: expressed in transfected cells; host or cells: K562 and RBL2H3 cells
T1 sequence (P51677 1-355): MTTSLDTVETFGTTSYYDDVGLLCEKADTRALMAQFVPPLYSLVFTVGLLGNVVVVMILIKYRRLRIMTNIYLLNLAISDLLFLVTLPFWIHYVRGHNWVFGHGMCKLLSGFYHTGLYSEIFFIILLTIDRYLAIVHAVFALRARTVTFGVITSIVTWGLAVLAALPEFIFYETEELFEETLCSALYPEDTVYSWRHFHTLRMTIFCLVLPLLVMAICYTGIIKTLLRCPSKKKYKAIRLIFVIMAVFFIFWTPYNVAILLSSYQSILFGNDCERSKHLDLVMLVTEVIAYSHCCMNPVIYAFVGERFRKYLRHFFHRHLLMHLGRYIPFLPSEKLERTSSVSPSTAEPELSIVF
Method: B.) Investigation of Ca^2+ Mobilization in hCCR3-RBL and hCCR3 K562 Cells
HCCR3-K562 and hCCE3-RBL2H3 cells in 40,000 cells/well density (number of cells in one well of the microplate) are cultured for 24 hours. The cells are washed and loaded with calcium indicator dye (Calcium Plus assay Kit, Molecular Devices). The cells are incubated in the presence of the dye for 60 minutes while loading takes place. The dye is a fluorescent calcium indicator, which sensitively indicates the intracellular calcium concentration. The intracellular calcium concentration is in direct ratio with the fluorescent signal of the sample. The experiments are performed in a BMG NOVOSTAR apparatus, at […].
The selective agonists used in the experiments are:
In the experiments an agonist concentration is used which causes a 75% calcium signal compared to the maximum attainable signal.
Antagonists are added 15 minutes before the agonist treatment.
The change of the fluorescent signal is monitored for 30 seconds, during that period the process takes place.
The intensity of the maximum calcium signal following the addition of the agonist is compared with the calcium signal obtained after the addition of the same agonist, but in the presence of the inhibitor.
The activity of the compounds is characterized with the IC50 values.

[1] = test B, inhibition of agonist-induced calcium signal in hCCR3-K562 / hCCR3-RBL2H3 cells, antagonist added 15 minutes before agonist, read-out: IC50

## CC1CN(c2ccc3nc(CCC(=O)NCCCN4CCCC4c4ccc(Cl)c(Cl)c4)sc3n2)CC(C)O1 (centres unmarked) [Example 11, N-{3-[2-(3,4-dichlorophenyl)pyrrolidin-1-yl]propyl}-3-(5-(2,6-dimethylmorpholin-4-yl)[1,3]thiazolo[5,4-b]pyridin-2-yl)propionamide]
hCCR3
  IC50: 1.6 nM

## O=C(CCc1nc2ccc(N3CCCCC3)nc2s1)NCCC[N+]1([O-])CCCC1c1ccc(Cl)c(Cl)c1 (centres unmarked) [Example 20]
hCCR3
  IC50: 13 nM
other
  melting point: 185 to 187 °C

## O=C(CCc1nc2nc(N3CCCC3)ccc2s1)NCCC[N+]1([O-])CCCC1c1ccc(Cl)c(Cl)c1 (centres unmarked)
other
  melting point: 185 to 188 °C

## 1-Amino-2-(3,4-dichlorophenyl)-1-(3-{[3-(5-pyrrolidin-1-yl[1,3]thiazolo[4,5-b]pyridin-2-yl)propanoyl]amino}propyl)pyrrolidinium tosylate [Example 14]
hCCR3; [1]
  IC50: 1 nM

## O=C(CCc1nc2ccc(N3CCCCC3)nc2s1)NCCCN1CCCC1c1ccc(Cl)c(Cl)c1 (centres unmarked) [Example 4, N-{3-[2-(3,4-dichlorophenyl)pyrrolidin-1-yl]propyl}-3-(5-piperidin-1-yl[1,3]thiazolo[5,4-b]pyridin-2-yl)propionamide]
hCCR3
  IC50: 3.4 nM
other
  melting point: 93 to 95 °C

## CCNC(=O)N[N+]1(CCCNC(=O)CCc2nc3nc(N4CC(C)OC(C)C4)ccc3s2)CCCC1c1ccc(Cl)c(Cl)c1.Cl (centres unmarked)
other
  melting point: 115 to 118 °C

## O=C(CCc1nc2ncc(N3CCCCC3)nc2s1)NCCCN1CCCC1c1ccc(Cl)c(Cl)c1 (centres unmarked) [Example 9]
hCCR3
  IC50: 3.9 nM
other
  melting point: 105 °C

## 1-(Acetylamino)-2-(3,4-dichlorophenyl)-1-(3-{[3-(5-piperidin-1-yl[1,3]thiazolo[4,5-b]pyridin-2-yl)propanoyl]amino}propyl)pyrrolidinium hydrochloride [Example 23]
hCCR3; [1]
  IC50: 13 nM

## O=C(CCc1nc2ccc(N3CCCC3)nc2s1)NCCCN1CCCC1c1ccc(Cl)c(Cl)c1 (centres unmarked) [Example 3, N-{3-[2-(3,4-dichlorophenyl)pyrrolidin-1-yl]propyl}-3-(5-pyrrolidin-1-yl[1,3]thiazolo[5,4-b]pyridin-2-yl)propionamide]
hCCR3
  IC50: 5 nM
other
  melting point: 137 to 138 °C

## O=C(CCc1nc2ccc(N3CCOCC3)nc2s1)NCCCN1CCCC1c1ccc(Cl)c(Cl)c1 (centres unmarked) [Example 5, N-{3-[2-(3,4-dichlorophenyl)pyrrolidin-1-yl]propyl}-3-(5-morpholin-4-yl[1,3]thiazolo[5,4-b]pyridin-2-yl)propionamide]
hCCR3
  IC50: 0.9 nM
other
  melting point: 111 to 112 °C

## Cc1ccc2nc(CCC(=O)NCCCN3CCCC3c3ccc(Cl)c(Cl)c3)sc2c1 (centres unmarked)
other
  melting point: 76 to 79 °C

## N-{3-[2-(3,4-dichlorophenyl)-1-oxidopyrrolidin-1-yl]propyl}-3-(5-morpholin-4-yl[1,3]thiazolo[4,5-b]pyridin-2-yl)propionamide [Example 21]
hCCR3; [1]
  IC50: 82.5 nM

## Cc1ccc2nc(CCC(=O)NCCCN3CCCC3c3ccc(Cl)c(Cl)c3)sc2n1 (centres unmarked)
other
  melting point: 125 to 130 °C

## CNc1ccc2nc(CCC(=O)NCCCN3CCCC3c3ccc(Cl)c(Cl)c3)sc2n1 (centres unmarked) [Example 2, N-{3-[2-(3,4-dichlorophenyl)pyrrolidin-1-yl]propyl}-3-(5-(methylamino)[1,3]thiazolo[5,4-b]pyridin-2-yl)propionamide]
hCCR3
  IC50: 18 nM
other
  melting point: 119 to 121 °C
